Measured values reported in patent publication US20030087906A1, “NITROGEN SUBSTITUTED BIARYL PURINE DERIVATIVES AS POTENT ANTIPROLIFERATIVE AGENTS” (priority 2001, published 2003).
Where “and” joins values, the source holds several entries; their conditions need not be identical. Identical values can stand only once.

Key:
SNB-19 = test: NCI 60-cell line growth inhibition assay; type: cell-based; settings: Homo sapiens; CNS, SNB-19
SW-620 = test: NCI 60-cell line growth inhibition assay; type: cell-based; settings: Homo sapiens; Colon, SW-620
HCT-15 = test: NCI 60-cell line growth inhibition assay; type: cell-based; settings: Homo sapiens; Colon, HCT-15
HCC-2998 = test: NCI 60-cell line growth inhibition assay; type: cell-based; settings: Homo sapiens; Colon, HCC-2998
DU-145 = test: NCI 60-cell line growth inhibition assay; type: cell-based; settings: Homo sapiens; Prostate, DU-145
HT29 = test: NCI 60-cell line growth inhibition assay; type: cell-based; settings: Homo sapiens, HT-29; Colon, HT29
OVCAR-5 = test: NCI 60-cell line growth inhibition assay; type: cell-based; settings: Homo sapiens; Ovarian, OVCAR-5
SF-268 = test: NCI 60-cell line growth inhibition assay; type: cell-based; settings: Homo sapiens; CNS, SF-268
NCI-H460 = test: NCI 60-cell line growth inhibition assay; type: cell-based; settings: Homo sapiens; Non-Small Cell Lung, NCI-H460
MCF7 = test: NCI 60-cell line growth inhibition assay; type: cell-based; settings: Homo sapiens; Breast, MCF7
NCI-H322M = test: NCI 60-cell line growth inhibition assay; type: cell-based; settings: Homo sapiens; Non-Small Cell Lung, NCI-H322M
SK-MEL-28 = test: NCI 60-cell line growth inhibition assay; type: cell-based; settings: Homo sapiens; Melanoma, SK-MEL-28
IGROV1 = test: NCI 60-cell line growth inhibition assay; type: cell-based; settings: Homo sapiens, IGROV-1; Ovarian, IGROV1
U251 = test: NCI 60-cell line growth inhibition assay; type: cell-based; settings: Homo sapiens, U-251; CNS, U251
PC-3 = test: NCI 60-cell line growth inhibition assay; type: cell-based; settings: Homo sapiens; Prostate, PC-3
UACC-257 = test: NCI 60-cell line growth inhibition assay; type: cell-based; settings: Homo sapiens; Melanoma, UACC-257
SF-539 = test: NCI 60-cell line growth inhibition assay; type: cell-based; settings: Homo sapiens; CNS, SF-539
OVCAR-8 = test: NCI 60-cell line growth inhibition assay; type: cell-based; settings: Homo sapiens; Ovarian, OVCAR-8
RPMI-8226 = test: NCI 60-cell line growth inhibition assay; type: cell-based; settings: Homo sapiens; Leukemia, RPMI-8226
NCI/ADR-RES = test: NCI 60-cell line growth inhibition assay; type: cell-based; settings: Homo sapiens; Breast, NCI/ADR-RES
K-562 = test: NCI 60-cell line growth inhibition assay; type: cell-based; settings: Homo sapiens, K562; Leukemia, K-562
KM12 = test: NCI 60-cell line growth inhibition assay; type: cell-based; settings: Homo sapiens; Colon, KM12
HOP-62 = test: NCI 60-cell line growth inhibition assay; type: cell-based; settings: Homo sapiens; Non-Small Cell Lung, HOP-62
NCI-H522 = test: NCI 60-cell line growth inhibition assay; type: cell-based; settings: Homo sapiens; Non-Small Cell Lung, NCI-H522
M14 = test: NCI 60-cell line growth inhibition assay; type: cell-based; settings: Homo sapiens; Melanoma, M14
786-0 = test: NCI 60-cell line growth inhibition assay; type: cell-based; settings: Homo sapiens; Renal, 786-0
MALME-3M = test: NCI 60-cell line growth inhibition assay; type: cell-based; settings: Homo sapiens; Melanoma, MALME-3M
UO-31 = test: NCI 60-cell line growth inhibition assay; type: cell-based; settings: Homo sapiens; Renal, UO-31
SR = test: NCI 60-cell line growth inhibition assay; type: cell-based; settings: Homo sapiens; Leukemia, SR
HCT-116 = test: NCI 60-cell line growth inhibition assay; type: cell-based; settings: Homo sapiens; Colon, HCT-116
MOLT-4 = test: NCI 60-cell line growth inhibition assay; type: cell-based; settings: Homo sapiens; Leukemia, MOLT-4
CCRF-CEM = test: NCI 60-cell line growth inhibition assay; type: cell-based; settings: Homo sapiens; Leukemia, CCRF-CEM
ACHN = test: NCI 60-cell line growth inhibition assay; type: cell-based; settings: Homo sapiens; Renal, ACHN
T-47D = test: NCI 60-cell line growth inhibition assay; type: cell-based; settings: Homo sapiens, T47D; Breast, T-47D
SK-OV-3 = test: NCI 60-cell line growth inhibition assay; type: cell-based; settings: Homo sapiens; Ovarian, SK-OV-3
EKVX = test: NCI 60-cell line growth inhibition assay; type: cell-based; settings: Homo sapiens; Non-Small Cell Lung, EKVX
A549/ATCC = test: NCI 60-cell line growth inhibition assay; type: cell-based; settings: Homo sapiens; Non-Small Cell Lung, A549/ATCC
SF-295 = test: NCI 60-cell line growth inhibition assay; type: cell-based; settings: Homo sapiens; CNS, SF-295
OVCAR-3 = test: NCI 60-cell line growth inhibition assay; type: cell-based; settings: Homo sapiens; Ovarian, OVCAR-3
SK-MEL-5 = test: NCI 60-cell line growth inhibition assay; type: cell-based; settings: Homo sapiens; Melanoma, SK-MEL-5
HL-60(TB) = test: NCI 60-cell line growth inhibition assay; type: cell-based; settings: Homo sapiens; Leukemia, HL-60(TB)
COLO 205 = test: NCI 60-cell line growth inhibition assay; type: cell-based; settings: Homo sapiens; Colon, COLO 205
TK-10 = test: NCI 60-cell line growth inhibition assay; type: cell-based; settings: Homo sapiens; Renal, TK-10
MDA-MB-435 = test: NCI 60-cell line growth inhibition assay; type: cell-based; settings: Homo sapiens; Breast, MDA-MB-435
UACC-62 = test: NCI 60-cell line growth inhibition assay; type: cell-based; settings: Homo sapiens; Melanoma, UACC-62
BT-549 = test: NCI 60-cell line growth inhibition assay; type: cell-based; settings: Homo sapiens; Breast, BT-549
SK-MEL-2 = test: NCI 60-cell line growth inhibition assay; type: cell-based; settings: Homo sapiens; Melanoma, SK-MEL-2
NCI-H23 = test: NCI 60-cell line growth inhibition assay; type: cell-based; settings: Homo sapiens; Non-Small Cell Lung, NCI-H23
CAKI-1 = test: NCI 60-cell line growth inhibition assay; type: cell-based; settings: Homo sapiens; Renal, CAKI-1
OVCAR-4 = test: NCI 60-cell line growth inhibition assay; type: cell-based; settings: Homo sapiens; Ovarian, OVCAR-4
LOX IMVI = test: NCI 60-cell line growth inhibition assay; type: cell-based; settings: Homo sapiens; Melanoma, LOX IMVI
CyclinB/cdk1 = biological target: T1, CyclinB/cdk1 (Homo sapiens, UniProt P06493); test: CyclinB/cdk1 protein kinase assay (histone H1 phosphorylation); type: biochemical; settings: complex immunopurified from HeLa cells; 15 μM ATP; replicate experiments
T1 construct: Monoclonal antibody against cyclinB (GNS1) is added to the supernatant; endogenous in cells
Protocol: HeLa cells are blocked at the G1/S border by culturing in the presence of 2 mM thymidine for 20 h. The cells are then rinsed 3×in phosphate buffered saline and resuspended in regular medium. After 4 h of culture, the mitotic blocker, nocodazole is added to a final concentration of 75 ng/ml. […] The lysate is then clarified by centrifugation at 10,000×g for 10 min. The supernatant is collected and diluted 1:5 with Lysis Buffer. Monoclonal antibody against cyclinB (GNS1) is added to the supernatant to a final concentration of 5 μg/ml and shaken at 4° C. for 2 h. The immune complexes are then collected by the addition of 200 μl of protein agarose beads for 1 h. The beads are washed 4×in lysis buffer and 1×in kinase assay buffer.
Duplicate assays were performed at each concentration.

CyclinA/cdk2 = CyclinA/cdk2 (Homo sapiens, UniProt P24941); test: CyclinA/cdk2 protein kinase assay (histone H1 phosphorylation); settings: IC50 CyclinA/cdk2, complex immunopurified from HeLa cells; 15 μM ATP; replicate experiments
CyclinE/cdk2 = CyclinE/cdk2 (Homo sapiens, UniProt P24941); test: CyclinE/cdk2 protein kinase assay (histone H1 phosphorylation); settings: IC50 CyclinE/cdk2, complex immunopurified from HeLa cells; 15 μM ATP; replicate experiments
[1] = MTD (NCI in vivo evaluation, Table 8); settings: mouse
[2] = tested on: Tumor Cells in Hollow Fibers; test: NCI Hollow Fiber Assay (in vivo evaluation)

T1 sequence (P06493 whole entry): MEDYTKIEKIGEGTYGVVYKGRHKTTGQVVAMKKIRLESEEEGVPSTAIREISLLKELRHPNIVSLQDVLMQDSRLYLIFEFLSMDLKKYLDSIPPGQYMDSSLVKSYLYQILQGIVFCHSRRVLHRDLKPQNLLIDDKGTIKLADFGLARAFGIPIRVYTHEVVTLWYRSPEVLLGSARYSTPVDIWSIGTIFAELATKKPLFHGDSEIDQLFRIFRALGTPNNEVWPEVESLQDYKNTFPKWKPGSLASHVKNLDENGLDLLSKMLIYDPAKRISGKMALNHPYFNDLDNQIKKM
T1 sequence (P14635 whole entry partner): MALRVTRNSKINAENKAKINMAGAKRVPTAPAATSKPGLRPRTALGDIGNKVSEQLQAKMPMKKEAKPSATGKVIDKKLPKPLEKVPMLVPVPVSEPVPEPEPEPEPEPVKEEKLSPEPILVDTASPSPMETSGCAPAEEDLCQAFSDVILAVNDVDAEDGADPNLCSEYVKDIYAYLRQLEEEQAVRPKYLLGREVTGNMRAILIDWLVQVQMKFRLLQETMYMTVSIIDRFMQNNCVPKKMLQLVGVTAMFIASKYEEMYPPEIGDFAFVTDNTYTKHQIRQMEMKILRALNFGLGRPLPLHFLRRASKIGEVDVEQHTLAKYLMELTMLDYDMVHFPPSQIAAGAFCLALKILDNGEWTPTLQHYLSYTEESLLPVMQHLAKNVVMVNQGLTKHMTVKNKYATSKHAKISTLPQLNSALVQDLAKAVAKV

C=Cc1ccc(-c2ccc(CNc3nc(N[C@H](CC)CO)nc4c3ncn4C(C)C)cc2)cc1 [Compound 33]
GI50 (SNB-19): 38 µM
GI50 (SW-620): 2.9 µM
GI50 (HCT-15): 8.9 µM
GI50 (HCC-2998): > 1000 µM
GI50 (DU-145): 17.8 µM
GI50 (HT29): 8.9 µM
GI50 (OVCAR-5): > 1000 µM
GI50 (SF-268): 6.3 µM
GI50 (NCI-H460): 25.7 µM
GI50 (MCF7): 5.2 µM
GI50 (NCI-H322M): 38.9 µM
GI50 (SK-MEL-28): 5.9 µM
GI50 (IGROV1): 10 µM
GI50 (U251): 3.7 µM
GI50 (PC-3): > 1000 µM
GI50 (UACC-257): 75.9 µM
GI50 (SF-539): 89.1 µM
GI50 (OVCAR-8): 6.6 µM
GI50 (RPMI-8226): 1.5 µM
GI50 (NCI/ADR-RES): 6.3 µM
GI50 (K-562): 3.1 µM
GI50 (KM12): 4.1 µM
GI50 (HOP-62): > 1000 µM
GI50 (NCI-H522): 4.2 µM
GI50 (M14): 7.8 µM
GI50 (786-0): 18.6 µM
GI50 (MALME-3M): 11.7 µM
GI50 (UO-31): 8.1 µM
GI50 (SR): 4.5 µM
GI50 (HCT-116): 6.2 µM
GI50 (MOLT-4): 3.8 µM
GI50 (CCRF-CEM): 4.6 µM
GI50 (ACHN): 5.2 µM
GI50 (T-47D): 3.9 µM
GI50 (SK-OV-3): > 1000 µM
GI50 (EKVX): 6.9 µM
GI50 (A549/ATCC): 4.6 µM
GI50 (SF-295): 7.8 µM
GI50 (OVCAR-3): > 1000 µM
GI50 (SK-MEL-5): 16.2 µM
GI50 (HL-60(TB)): 3.2 µM
GI50 (COLO 205): 7.8 µM
GI50 (TK-10): 8.3 µM
GI50 (MDA-MB-435): 4.9 µM
GI50 (UACC-62): 8.3 µM
GI50 (BT-549): 51.3 µM
GI50 (SK-MEL-2): > 1000 µM
GI50 (NCI-H23): 26.3 µM
GI50 (CAKI-1): 4.4 µM
GI50 (OVCAR-4): 31.6 µM
GI50 (LOX IMVI): 16.6 µM

CC(=O)N[C@H]1CC[C@H](Nc2nc(NCc3ccc(-c4ccccc4)cc3)c3ncn(C(C)C)c3n2)CC1 [Compound 76]
IC50 (CyclinB/cdk1): 6 µM
IC50 (CyclinA/cdk2): 12 µM and 11 µM and 3 µM
melting point: 224 to 225 °C
IC50 (CyclinE/cdk2): 3 µM and 5 µM and 2 µM

CC(=O)N[C@H]1CC[C@H](Nc2nc(NCc3ccc(-c4ccsc4)cc3)c3ncn(C(C)C)c3n2)CC1 [Compound 113]
MTD [1]: 200 mg/kg
IC50 (CyclinA/cdk2): 0.4 µM
Cell Types Killed [2]: OVCAR-3
IP Score ([2]; IP fibers): 18
SC score ([2]; SC fibers): 4
IC50 (CyclinE/cdk2): 0.3 µM

CC(C)n1cnc2c(NCc3ccc(-c4ccccc4)cc3)nc(N[C@H]3CC[C@H](O)CC3)nc21 [Compound 77]
IC50 (CyclinB/cdk1): > 10 µM
IC50 (CyclinA/cdk2): > 10 µM
melting point: 196 to 200 °C
IC50 (CyclinE/cdk2): 4 µM and 14 µM
